Test results published in ChEMBL document CHEMBL1697781, “Assessment of the health effects of chemicals in humans: II. Construction of an adverse effects database for QSAR modeling” (Curr Drug Discov Technol, 2004).

Experiments:
Settings in all cases: human; call rule not given here
Hepatotoxicity [1] = experiment: FDA HLAED, serum glutamic pyruvic transaminase (SGPT) increase
Hepatotoxicity [2] = experiment: FDA HLAED, serum glutamic oxaloacetic transaminase (SGOT) increase
Hepatotoxicity [3] = experiment: FDA HLAED, alkaline phosphatase increase
Hepatotoxicity [4] = experiment: FDA HLAED, lactate dehydrogenase (LDH) increase
Hepatotoxicity [5] = experiment: FDA HLAED, liver enzyme composite activity
Hepatotoxicity [6] = experiment: FDA HLAED, gamma-glutamyl transferase (GGT) increase
Wherever GGT Increase - Index Value is given: reference of the scale not given here.
Wherever LDH Increase - Index Value is given: reference of the scale not given here.

Row | Compound | SGPT Increase - Activity Score (Hepatotoxicity [1]) | SGPT Increase - Index Value (Hepatotoxicity [1]) | SGPT Increase - Number of Reports (Hepatotoxicity [1]) | SGOT Increase - Activity Score (Hepatotoxicity [2]) | SGOT Increase - Index Value (Hepatotoxicity [2]) | SGOT Increase - Number of Reports (Hepatotoxicity [2]) | Alkaline Phosphatase Increase - Activity Score (Hepatotoxicity [3]) | Alkaline Phosphatase Increase - Index Value (Hepatotoxicity [3]) | Alkaline Phosphatase Increase - Number of Reports (Hepatotoxicity [3]) | LDH Increase - Activity Score (Hepatotoxicity [4]) | LDH Increase - Index Value (Hepatotoxicity [4]) | LDH Increase - Number of Reports (Hepatotoxicity [4]) | Composite Activity - Active (Hepatotoxicity [5]) | Composite Activity - Marginal (Hepatotoxicity [5]) | Composite Activity - Score (Hepatotoxicity [5]) | GGT Increase - Activity Score (Hepatotoxicity [6]) | GGT Increase - Index Value (Hepatotoxicity [6]) | GGT Increase - Number of Reports (Hepatotoxicity [6])
1 | CN1C2CCCC1CC(NC(=O)c1nn(C)c3ccccc13)C2 (stereo not given) [GRANISETRON] | Inactive | 0.6 | < 4 | Inactive | 0.6 | < 4 | Inactive | 1 | >= 4 | Inactive | 0.2 | < 4 | 0 | 0 | Inactive | Inactive | 0.2 | < 4
2 | N=C(N)N/N=C/c1c(Cl)cccc1Cl [GUANABENZ] | Inactive | 0.6 | < 4 | Inactive | 0.9 | < 4 | Inactive | 0 | < 4 | Inactive | 0.3 | < 4 | 0 | 0 | Inactive | Inactive | 0 | < 4
3 | N=C(N)NC(=O)Cc1c(Cl)cccc1Cl [GUANFACINE] | Inactive | 0.3 | < 4 | Inactive | 1.3 | >= 4 | Inactive | 1 | < 4 | Inactive | 0.6 | < 4 | 0 | 0 | Inactive | Inactive | 0 | < 4
4 | O=C1CN=C(c2ccccc2)c2cc(Cl)ccc2N1CC(F)(F)F [HALAZEPAM] | Inactive | 0 | < 4 | Inactive | 0 | < 4 | Inactive | 0 | < 4 | Inactive | 0 | < 4 | 0 | 0 | Inactive | Inactive | 0 | < 4
5 | C[C@H]1C[C@H]2[C@@H]3C[C@H](F)C4=CC(=O)C=C[C@]4(C)[C@@]3(F)[C@@H](O)C[C@]2(C)[C@@]1(O)C(=O)CCl [HALOBETASOL] | Inactive | 0 | < 4 | Inactive | 0 | < 4 | Inactive | 0 | < 4 | Inactive | 0 | < 4 | 0 | 0 | Inactive | Inactive | 0 | < 4
